Results on 29 compounds are retold here after patent publication US20230075856A1, “CYCLIC SULFAMIDE COMPOUNDS FOR TREATMENT OF HBV” (Assembly Biosciences, Inc., priority 2018, published 2023).

The subject of the first assay is HBV viral load production from HepAD38 cells. The experiment in a line: Viral production from HepAD38 cells: viral load in supernatant by qPCR of the HBV core sequence. The class given is cell-based. The conditions noted are these: 5 days incubation, qPCR of supernatant HBV DNA vs DMSO control, read-out: viral load lowering EC50 (Activity). A digest of the protocol: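 HepAD38 cells seeded at 50,000/well in tetracycline-free medium with 2% FBS, treated with compounds (final top concentration 10 μM) for 5 days at 37 °C. Supernatant HBV DNA quantified by TaqMan qPCR of core sequence against HBV DNA standards, relative to DMSO controls; EC50 by four-parameter logistic fit.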
For the compound `Cc1c(CNC(=O)C2CC(C(=O)Nc3ccc(F)c(Cl)c3)N(C)S(=O)(=O)N2)nnn1-c1ccccc1` (single isomer, unassigned; isomer-a) [1148-ISOMER-A, N3-(3-chloro-4-fluoro-phenyl)-2-methyl-N5-[(5-methyl-1-phenyl-triazol-4-yl)methyl]-1,1-dioxo-1,2,6-thiadiazinane-3,5-dicarboxamide], the EC50 was in the range of 50 to 100 nM.
Same read-out and setting: to `CN1C(C(=O)Nc2ccc(F)c(Cl)c2)CC(C(=O)NCc2ccccc2)NS1(=O)=O` (single isomer, unassigned) [Compound 718-ISOMER-B, N5-benzyl-N3-(3-chloro-4-fluorophenyl)-2-methyl-1,1-dioxo-1,2,6-thiadiazinane-3,5-dicarboxamide] belongs 100 to 10000 nM.
In the case of `COc1ccc(-c2cnc(CNC(=O)C3CC(C(=O)Nc4ccc(F)c(Cl)c4)N(C)S(=O)(=O)N3)s2)cc1` (single isomer, unassigned) [Compound 932-ISOMER-B, N3-(3-chloro-4-fluoro-phenyl)-N5-[[5-(4-methoxyphenyl)thiazol-2-yl]methyl]-2-methyl-1,1-dioxo-1,2,6-thiadiazinane-3,5-dicarboxamide], the EC50 was less than 50 nM.
Same read-out and setting: to `Cc1c(CNC(=O)C2CC(C(=O)Nc3ccc(F)c(Cl)c3)N(C)S(=O)(=O)N2)cnn1C` (single isomer, unassigned) [Compound 740-ISOMER-B, N3-(3-chloro-4-fluoro-phenyl)-N5-[(1,5-dimethylpyrazol-4-yl)methyl]-2-methyl-1,1-dioxo-1,2,6-thiadiazinane-3,5-dicarboxamide] belongs 100 to 10000 nM.

The assay is the same for the next values; noted with them: Hepatitis B virus, HePAD38, 120 h, 5 days incubation, qPCR of supernatant HBV DNA vs DMSO control, read-out: viral load lowering EC50 (Activity).
As for `CN1C(C(=O)Nc2ccc(F)c(Cl)c2)CC(C(=O)NCc2cc(-c3ccc(F)cc3)n(C)n2)NS1(=O)=O` (single isomer, unassigned) [1151-ISOMER-A, N3-(3-chloro-4-fluoro-phenyl)-N5-[[5-(4-fluorophenyl)-1-methyl-pyrazol-3-yl]methyl]-2-methyl-1,1-dioxo-1,2,6-thiadiazinane-3,5-dicarboxamide], the EC50 was less than 50 nM.
The same measure, in the same setting: to `CN1C(C(=O)Nc2ccc(F)c(Cl)c2)CC(C(=O)NCc2ccccn2)NS1(=O)=O` (centres unmarked) [Compound 739] belongs 50 to 100 nM; to `C[C@@H](NC(=O)C1CC(C(=O)Nc2ccc(F)c(Cl)c2)N(C)S(=O)(=O)N1)c1ccc(F)cc1` (single isomer, unassigned) [Compound 493-R], less than 50 nM.
Still for that read-out and setting: to `CC(C)OC1CCC(NC(=O)C2CC(C(=O)Nc3ccc(F)c(Cl)c3)N(C)S(=O)(=O)N2)CC1` (centres unmarked) [Compound 862] belongs less than 50 nM.
The same measure, in the same setting: to `Cc1nc(Cl)sc1C(NC(=O)C1CC(C(=O)Nc2ccc(F)c(Cl)c2)N(C)S(=O)(=O)N1)c1ccccc1` (centres unmarked) [Compound 1098] belongs less than 50 nM.
Take `CN1C(C(=O)Nc2ccc(F)c(Cl)c2)CC(C(=O)NCc2ncc(-c3ccc(F)cc3)s2)NS1(=O)=O` (single isomer, unassigned) [1153-ISOMER-A, N3-(3-chloro-4-fluoro-phenyl)-N5-[[5-(4-fluorophenyl)thiazol-2-yl]methyl]-2-methyl-1,1-dioxo-1,2,6-thiadiazinane-3,5-dicarboxamide]: the EC50 was less than 50 nM.
The same measure, in the same setting: to `CN1C(C(=O)Nc2ccc(F)c(Cl)c2)C[C@@H](C(=O)N[C@H](c2ccccc2)c2cnc(-c3ccccc3Cl)s2)NS1(=O)=O` (single isomer, unassigned) [1068-ISOMER-C] belongs less than 50 nM.
For the compound `Cc1nc(-c2ccccc2)sc1C(NC(=O)C1CC(C(=O)Nc2ccc(F)c(Cl)c2)N(C)S(=O)(=O)N1)c1ccccc1` (centres unmarked) [Compound 1099], the EC50 was in the range of 50 to 100 nM.
Turning to `CN1C(C(=O)Nc2ccc(F)c(Cl)c2)CC(C(=O)NCc2sc(-c3ccccc3Cl)nc2C(F)(F)F)NS1(=O)=O` (centres unmarked) [Compound 1064], the EC50 is less than 50 nM.
Same read-out and setting: to `Cc1nc(CNC(=O)C2CC(C(=O)Nc3ccc(F)c(Cl)c3)N(C)S(=O)(=O)N2)sc1-c1ccccc1` (centres unmarked) [Compound 1070] belongs less than 50 nM; to `CN1C(C(=O)Nc2ccc(F)c(Cl)c2)CC(C(=O)NCc2cnc(-c3cccc(Cl)c3)s2)NS1(=O)=O` (centres unmarked) [Compound 913], 50 to 100 nM.
On the same count and under the same terms, to `COc1ccc(-c2ncc(CNC(=O)C3CC(C(=O)Nc4ccc(F)c(Cl)c4)N(C)S(=O)(=O)N3)s2)c(Cl)c1` (centres unmarked) [Compound 988] belongs less than 50 nM.
On the same count and under the same terms, to `CN1C(C(=O)Nc2ccc(F)c(Cl)c2)CC(C(=O)NC2CCN(C(=O)OC(C)(C)C)CC2)NS1(=O)=O` (centres unmarked) [Compound 767] belongs less than 50 nM; to `CN1C(C(=O)Nc2ccc(F)c(Cl)c2)CC(C(=O)NC2CCN(c3ccnc(F)c3)CC2)NS1(=O)=O` (single isomer, unassigned) [1040-ISOMER-A, N3-(3-chloro-4-fluoro-phenyl)-N5-[1-(2-fluoro-4-pyridyl)-4-piperidyl]-2-methyl-1,1-dioxo-1,2,6-thiadiazinane-3,5-dicarboxamide], less than 50 nM.
In the case of `CN1C(C(=O)Nc2ccc(F)c(Cl)c2)CC(C(=O)NCc2cccc(Cl)c2)NS1(=O)=O` (centres unmarked) [Compound 730], the EC50 is less than 50 nM.
On the same count and under the same terms, to `CN1C(C(=O)Nc2ccc(F)c(C#N)c2)CC(C(=O)NCc2ccccc2)NS1(=O)=O` (centres unmarked) [Compound 833] belongs 100 to 10000 nM; to `CN1C(C(=O)Nc2ccc(F)c(Cl)c2)CC(C(=O)NCc2cnc(-c3ccccc3Cl)s2)NS1(=O)=O` (centres unmarked) [Compound 912], less than 50 nM.
Still for that read-out and setting: to `COCCN1C(C(=O)Nc2ccc(F)c(Cl)c2)CC(C(=O)NC2CCN(C(=O)OC)CC2)NS1(=O)=O` (single isomer, unassigned) [Compound 896-ISOMER-A, methyl 4-[[5-[(3-chloro-4-fluoro-phenyl)carbamoyl]-6-(2-methoxyethyl)-1,1-dioxo-1,2,6-thiadiazinane-3-carbonyl]amino]piperidine-1-carboxylate] belongs 50 to 100 nM.
Take `CN1C(C(=O)Nc2ccc(F)c(C#N)c2)CC(C(=O)NCc2cnc(C(F)(F)F)s2)NS1(=O)=O` (centres unmarked) [Compound 772]: the EC50 is less than 50 nM.
Still for that read-out and setting: to `CN1C(C(=O)Nc2ccc(F)c(Cl)c2)CC(C(=O)NCc2cn(-c3ccccc3)cn2)NS1(=O)=O` (centres unmarked) [Compound 1145] belongs less than 50 nM.
Same read-out and setting: to `CN1C(C(=O)Nc2ccc(F)c(Cl)c2)CC(C(=O)NCc2nc3ccccc3s2)NS1(=O)=O` (centres unmarked) [Compound 689] belongs less than 50 nM; to `Cc1cc(CNC(=O)C2CC(C(=O)Nc3ccc(F)c(Cl)c3)N(C)S(=O)(=O)N2)n(C)n1` (single isomer, unassigned) [Compound 482-ISOMER-A, N3-(3-chloro-4-fluoro-phenyl)-N5-[(2,5-dimethylpyrazol-3-yl)methyl]-2-methyl-1,1-dioxo-1,2,6-thiadiazinane-3,5-dicarboxamide], less than 50 nM; to `C[C@H](NC(=O)C1CC(C(=O)Nc2ccc(F)c(C#N)c2)N(C)S(=O)(=O)N1)c1ccc(F)cc1` (some centres unmarked) [Compound 774], 100 to 10000 nM.
On the same count and under the same terms, to `CN1C(C(=O)Nc2ccc(F)c(Cl)c2)CC(C(=O)NCc2cnc(-c3ccc(OCCCN4CCCCC4)cc3)s2)NS1(=O)=O` (centres unmarked) [Compound 942] belongs 50 to 100 nM.
With `CN1C(C(=O)Nc2ccc(F)c(Cl)c2)CC(C(=O)NC2CCN(c3ccnc(Br)c3)CC2)NS1(=O)=O` (single isomer, unassigned) [1036-ISOMER-A, N5-[1-(2-bromo-4-pyridyl)-4-piperidyl]-N3-(3-chloro-4-fluoro-phenyl)-2-methyl-1,1-dioxo-1,2,6-thiadiazinane-3,5-dicarboxamide], the EC50 was less than 50 nM.
